Columns and labels:
OVCAR-3 cells = experiment: Inhibition on OVCAR-3 cell proliferation (CellTiter-Glo); assay type: cell-based; conditions: Homo sapiens, OVCAR-3 cells (TP53 R248Q mutation), 72 hours
In short: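 OVCAR-3 (TP53 R248Q) cells seeded at 1000/well overnight, then treated 72 h at 37 °C with compound at final 1000 nM–0.015 nM. CellTiter-Glo luminescence read; inhibition versus 0.3% DMSO control, IC50 by nonlinear regression on log concentration.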

HT-29 cells = experiment: Inhibition on HT-29 cell proliferation (CellTiter-Glo); assay type: cell-based; conditions: Homo sapiens, HT-29 cells (TP53 R273H mutation), 120 hours
recombinant human KIF18A = target: T1, recombinant human KIF18A (Homo sapiens, UniProt Q8NI77); experiment: Inhibition on KIF18A enzyme activity (ADP-Glo); assay type: biochemical; conditions: recombinant human KIF18A 100 nM, ATP 60 μM
T1 construct: purchased GenScript
T1 sequence (Q8NI77 whole entry): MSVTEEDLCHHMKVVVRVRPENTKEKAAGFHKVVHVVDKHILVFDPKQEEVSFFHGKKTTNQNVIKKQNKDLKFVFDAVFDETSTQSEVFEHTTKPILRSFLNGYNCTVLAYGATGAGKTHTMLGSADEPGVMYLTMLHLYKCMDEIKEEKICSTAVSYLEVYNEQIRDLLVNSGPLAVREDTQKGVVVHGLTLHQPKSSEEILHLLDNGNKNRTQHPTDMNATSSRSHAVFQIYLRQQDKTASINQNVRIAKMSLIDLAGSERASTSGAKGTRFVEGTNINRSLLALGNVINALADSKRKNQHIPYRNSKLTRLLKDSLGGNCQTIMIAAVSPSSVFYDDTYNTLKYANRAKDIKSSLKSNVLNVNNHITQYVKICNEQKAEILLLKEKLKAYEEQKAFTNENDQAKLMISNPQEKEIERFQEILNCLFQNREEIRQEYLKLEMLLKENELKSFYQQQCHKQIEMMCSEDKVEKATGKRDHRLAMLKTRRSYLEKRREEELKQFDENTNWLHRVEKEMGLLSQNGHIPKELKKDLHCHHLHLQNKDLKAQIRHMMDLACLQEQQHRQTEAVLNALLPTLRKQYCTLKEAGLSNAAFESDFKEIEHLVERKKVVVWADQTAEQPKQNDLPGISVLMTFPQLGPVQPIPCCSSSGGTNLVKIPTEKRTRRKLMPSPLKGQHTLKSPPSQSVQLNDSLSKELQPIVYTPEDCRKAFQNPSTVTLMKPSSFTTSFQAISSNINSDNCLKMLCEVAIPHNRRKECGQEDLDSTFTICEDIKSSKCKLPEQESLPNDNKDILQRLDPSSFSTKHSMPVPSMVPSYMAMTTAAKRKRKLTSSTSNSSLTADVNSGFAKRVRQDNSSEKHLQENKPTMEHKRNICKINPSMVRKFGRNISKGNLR
T1 sequence (P68363 whole entry partner): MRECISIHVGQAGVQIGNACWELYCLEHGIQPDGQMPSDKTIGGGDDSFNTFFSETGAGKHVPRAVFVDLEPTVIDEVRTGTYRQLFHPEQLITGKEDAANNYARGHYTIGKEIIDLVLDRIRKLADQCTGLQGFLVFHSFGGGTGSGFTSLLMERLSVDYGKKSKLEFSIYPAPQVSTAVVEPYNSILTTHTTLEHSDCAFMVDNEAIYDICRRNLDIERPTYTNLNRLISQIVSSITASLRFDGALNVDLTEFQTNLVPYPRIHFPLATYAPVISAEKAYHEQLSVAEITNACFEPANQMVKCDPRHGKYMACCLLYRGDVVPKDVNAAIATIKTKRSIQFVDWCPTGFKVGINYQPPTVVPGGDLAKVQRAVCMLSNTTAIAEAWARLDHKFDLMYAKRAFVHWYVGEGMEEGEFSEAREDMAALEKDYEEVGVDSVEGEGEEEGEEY
T1 sequence (Q9BVA1 whole entry partner): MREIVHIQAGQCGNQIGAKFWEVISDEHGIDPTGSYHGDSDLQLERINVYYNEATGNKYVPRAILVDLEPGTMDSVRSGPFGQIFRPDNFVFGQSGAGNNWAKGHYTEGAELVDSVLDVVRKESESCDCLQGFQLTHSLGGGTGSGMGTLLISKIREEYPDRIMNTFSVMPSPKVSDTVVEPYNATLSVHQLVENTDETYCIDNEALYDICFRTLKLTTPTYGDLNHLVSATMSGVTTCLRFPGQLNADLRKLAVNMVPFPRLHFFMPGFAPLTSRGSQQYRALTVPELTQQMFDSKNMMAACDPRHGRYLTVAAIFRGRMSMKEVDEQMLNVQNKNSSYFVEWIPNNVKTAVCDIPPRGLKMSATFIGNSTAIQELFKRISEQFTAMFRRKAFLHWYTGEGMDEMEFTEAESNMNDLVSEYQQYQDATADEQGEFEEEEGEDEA
In short: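 Recombinant human KIF18A (100 nM final) was preincubated with compound for 20 min at room temperature, then ATP (60 μM final) was added for 20 min. ADP formed was quantified by ADP-Glo as a luminescence read-out.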

[1] = Pharmacokinetic testing in mice; assay type: in vivo; conditions: male, mouse, ICR mice, plasma
Experimental: ICR mice were taken as test animals, and intragastrically administered with a control compound AMG650 and compounds 1, 18 and 29 of the present invention, and then drug concentrations in plasma at different moments were determined by an LC/MS/MS method, so as to study pharmacokinetic characteristics of the compounds of the present invention in the mice.
Control compound AMG650, and Compounds 1, 18 and 29.
ICR mice, male, 27.3-30.3 g, purchased from Vital River Laboratory Animal Technology Co., Ltd.
A proper amount of to-be-tested compound was weighed, proper amounts of DMA (N,N-dimethylacetamide), CrEL (polyoxyethylene 35 castor oil) and 5% GS (5% glucose injection) were added in sequence, and the obtained system was evenly mixed by ultrasonic vortex to prepare a 1 mg/mL preparation, wherein DMA, CrEL and 5% GS=10:10:80 (v:v:v).
ICR mice in each to-be-tested compound injection group (9 mice in each group) were fasted overnight and then intragastrically administered with the compound (PO, an administration dosage of the compound was 10 mg/kg and an administration volume of the compound was 10 mL/kg), and were fed 4 hours after administration.
0.25 hours, 0.5 hours, 1 hour, 2 hours, 4 hours, 8 hours, 10 hours and 24 hours before and after administration, about […] of blood was collected through an orbit, and a complete blood sample was placed in an EDTA-K2-containing anticoagulation tube. The collected blood sample was placed on ice, and plasma was centrifugally separated (centrifugation conditions: 1500 g, 10 minutes). The collected plasma was stored at −40~−20° C. before analysis.
A content of the to-be-tested compound in the plasma of the mice after intragastric administration was determined by LC-MS/MS.

SMILES: CCS(=O)(=O)Nc1ccc(C(=O)Nc2cc3c(c(N4CCC(F)(F)CC4)c2)OCC3)c(N2CCC3(CC2)CC3)c1 [Example 1, N-(7-(4,4-difluoropiperidin-1-yl)-2,3-dihydrobenzofuran-5-yl)-4-(ethylsulfonamido)-2-(6-azaspiro[2.5]octan-6-yl)benzamide]
- IC50 (OVCAR-3 cells): 0.75 nM
- IC50 (HT-29 cells): 2.4 nM
- IC50 (recombinant human KIF18A): 52 nM
- half-life ([1]; 10 mg/kg, oral administration (10 mg/mL), read-out: Half-life period T½ (converted)): 7.36 h
- Cmax ([1]; 10 mg/kg, oral administration (10 mg/mL), read-out: Plasma concentration Cmax): 12400 ng/mL
- AUC(0-inf) ([1]; oral administration (10 mg/kg), read-out: Area under the curve AUC0-∞): 95200 ng·h/mL

Reference: US20260256763A1, “Aromatic Amide Derivative, And Preparation Method Therefor And Use Thereof” (Zhejiang Hisun Pharmaceutical Co., Ltd., priority 2023, published 2026)
